Results on 31 molecules are retold here after ChEMBL document CHEMBL5038612, “Discovery of a 2,4-diphenyl-5,6-dihydrobenzo(h)quinolin-8-amine derivative as a novel DNA intercalating topoisomerase IIα poison” (Eur J Med Chem, 2021).

For orientation: IC50 means the concentration that inhibits the measured activity by half. The inhibition is the change of the read-out against control, counted positive when it falls.

SMILES strings stand for the structures. Counter-ions that a name gives are not always drawn. Activity calls are given as the source filed them. No cut-off for these calls is given here.

The subject of one test is HeLa. The test can be described thus: Antiproliferative activity against human HeLa cells assessed as reduction in cell viability after 48 hrs by Ez-cytoX based microplate reader method. The test is classed as functional.
The subject of the next test is HCT-15. Briefly: Antiproliferative activity against human HCT-15 cells assessed as reduction in cell viability after 48 hrs by Ez-cytoX based microplate reader method. It is filed as functional. The conditions noted are these: HCT-15, 48 h.
For test [1], the target named is T1, DNA topoisomerase 2-alpha (Homo sapiens, UniProt P11388). Briefly: Inhibition of human topoisomerase 2 alpha mediated supercoiled pBR322 DNA relaxation at 100 uM by ethidium bromide staining based agarose gel electrophoresis relative to control.
T1 sequence (P11388 whole entry): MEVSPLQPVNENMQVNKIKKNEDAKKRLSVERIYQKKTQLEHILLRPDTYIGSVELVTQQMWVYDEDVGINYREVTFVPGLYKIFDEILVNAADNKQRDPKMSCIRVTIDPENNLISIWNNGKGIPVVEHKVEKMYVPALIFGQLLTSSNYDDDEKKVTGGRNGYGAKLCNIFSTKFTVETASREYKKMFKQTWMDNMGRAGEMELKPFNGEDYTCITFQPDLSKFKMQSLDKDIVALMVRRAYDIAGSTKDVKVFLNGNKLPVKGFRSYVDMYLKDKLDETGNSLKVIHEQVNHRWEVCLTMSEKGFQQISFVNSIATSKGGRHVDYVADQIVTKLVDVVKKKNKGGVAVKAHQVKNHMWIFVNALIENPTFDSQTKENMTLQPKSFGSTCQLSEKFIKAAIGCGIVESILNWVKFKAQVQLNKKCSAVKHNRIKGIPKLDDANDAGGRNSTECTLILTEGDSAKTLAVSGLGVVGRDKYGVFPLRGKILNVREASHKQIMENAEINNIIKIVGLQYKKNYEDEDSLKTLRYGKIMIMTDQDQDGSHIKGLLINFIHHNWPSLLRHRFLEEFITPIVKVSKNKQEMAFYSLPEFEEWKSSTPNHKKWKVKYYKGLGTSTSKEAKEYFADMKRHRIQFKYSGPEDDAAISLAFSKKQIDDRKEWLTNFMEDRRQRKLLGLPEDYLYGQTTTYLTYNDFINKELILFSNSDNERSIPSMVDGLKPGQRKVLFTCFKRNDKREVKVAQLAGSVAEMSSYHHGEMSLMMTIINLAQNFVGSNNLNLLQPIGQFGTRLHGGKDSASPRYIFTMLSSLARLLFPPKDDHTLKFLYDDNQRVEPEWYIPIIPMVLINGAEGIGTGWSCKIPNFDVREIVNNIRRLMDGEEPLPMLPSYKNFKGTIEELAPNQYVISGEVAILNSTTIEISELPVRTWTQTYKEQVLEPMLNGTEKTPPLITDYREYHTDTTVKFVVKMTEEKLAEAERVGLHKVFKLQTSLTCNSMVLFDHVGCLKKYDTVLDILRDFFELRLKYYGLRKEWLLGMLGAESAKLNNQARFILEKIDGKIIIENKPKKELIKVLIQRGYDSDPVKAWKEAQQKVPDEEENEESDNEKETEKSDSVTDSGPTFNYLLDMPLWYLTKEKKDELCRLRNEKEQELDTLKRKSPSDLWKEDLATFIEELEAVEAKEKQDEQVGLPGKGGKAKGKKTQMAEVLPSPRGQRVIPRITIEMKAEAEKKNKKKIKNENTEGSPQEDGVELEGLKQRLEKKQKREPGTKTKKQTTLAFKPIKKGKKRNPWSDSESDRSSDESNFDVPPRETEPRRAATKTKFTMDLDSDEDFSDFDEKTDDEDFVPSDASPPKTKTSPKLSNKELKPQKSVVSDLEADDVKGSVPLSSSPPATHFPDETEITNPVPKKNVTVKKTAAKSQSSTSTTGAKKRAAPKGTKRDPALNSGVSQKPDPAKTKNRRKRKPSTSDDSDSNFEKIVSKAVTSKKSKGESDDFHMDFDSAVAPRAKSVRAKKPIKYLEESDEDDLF
The target of test [2] is DNA topoisomerase 2-beta (Homo sapiens) (UniProt Q02880). The test can be described thus: Inhibition of human topoisomerase 2 beta mediated supercoiled pBR322 DNA relaxation at 5 uM by ethidium bromide staining based agarose gel electrophoresis relative to control.
Sequence of DNA topoisomerase 2-beta (Homo sapiens) (Q02880 whole entry): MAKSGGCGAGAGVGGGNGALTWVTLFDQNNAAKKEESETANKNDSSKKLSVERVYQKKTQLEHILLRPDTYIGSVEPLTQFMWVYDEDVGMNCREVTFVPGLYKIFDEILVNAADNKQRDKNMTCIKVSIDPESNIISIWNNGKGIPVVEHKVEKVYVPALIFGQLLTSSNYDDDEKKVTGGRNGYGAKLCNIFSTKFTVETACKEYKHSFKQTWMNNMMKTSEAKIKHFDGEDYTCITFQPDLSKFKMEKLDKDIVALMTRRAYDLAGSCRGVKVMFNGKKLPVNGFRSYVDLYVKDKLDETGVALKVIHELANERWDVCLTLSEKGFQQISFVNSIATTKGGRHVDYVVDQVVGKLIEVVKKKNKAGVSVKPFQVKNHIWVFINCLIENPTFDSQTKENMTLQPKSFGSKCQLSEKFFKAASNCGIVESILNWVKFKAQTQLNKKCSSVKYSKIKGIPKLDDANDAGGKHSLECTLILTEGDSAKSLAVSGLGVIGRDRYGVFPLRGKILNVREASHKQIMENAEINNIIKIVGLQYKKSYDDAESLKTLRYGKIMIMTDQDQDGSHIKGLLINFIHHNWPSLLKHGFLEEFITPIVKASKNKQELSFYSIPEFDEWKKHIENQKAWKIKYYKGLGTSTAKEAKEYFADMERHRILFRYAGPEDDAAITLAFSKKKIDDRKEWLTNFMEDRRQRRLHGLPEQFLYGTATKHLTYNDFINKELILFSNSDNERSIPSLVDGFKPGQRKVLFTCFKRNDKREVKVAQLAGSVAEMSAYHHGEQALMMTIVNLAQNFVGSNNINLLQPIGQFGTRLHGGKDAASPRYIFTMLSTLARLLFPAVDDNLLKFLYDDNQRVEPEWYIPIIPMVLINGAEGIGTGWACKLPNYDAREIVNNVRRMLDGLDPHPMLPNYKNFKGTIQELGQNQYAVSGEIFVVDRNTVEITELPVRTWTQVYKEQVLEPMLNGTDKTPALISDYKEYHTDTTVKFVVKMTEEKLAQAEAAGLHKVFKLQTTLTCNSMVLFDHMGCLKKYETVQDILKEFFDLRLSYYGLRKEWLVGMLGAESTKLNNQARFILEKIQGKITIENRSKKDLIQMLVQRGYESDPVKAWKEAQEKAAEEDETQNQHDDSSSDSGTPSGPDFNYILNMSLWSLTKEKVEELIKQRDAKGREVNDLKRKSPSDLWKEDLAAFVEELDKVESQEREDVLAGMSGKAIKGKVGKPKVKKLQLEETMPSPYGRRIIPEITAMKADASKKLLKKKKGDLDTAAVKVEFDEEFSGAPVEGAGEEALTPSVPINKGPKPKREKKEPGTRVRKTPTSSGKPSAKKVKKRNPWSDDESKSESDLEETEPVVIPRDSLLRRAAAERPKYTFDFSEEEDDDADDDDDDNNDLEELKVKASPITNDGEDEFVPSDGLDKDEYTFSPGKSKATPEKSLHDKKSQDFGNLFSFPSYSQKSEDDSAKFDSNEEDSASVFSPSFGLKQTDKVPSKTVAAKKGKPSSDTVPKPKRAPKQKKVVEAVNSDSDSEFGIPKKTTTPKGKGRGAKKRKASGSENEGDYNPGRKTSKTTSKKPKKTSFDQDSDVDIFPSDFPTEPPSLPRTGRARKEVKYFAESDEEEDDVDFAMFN
Test [3] addresses T1, DNA topoisomerase 2-alpha. Briefly: Inhibition of human topoisomerase 2 alpha mediated supercoiled pBR322 DNA relaxation by ethidium bromide staining based agarose gel electrophoresis.
Test [4] concerns the target DNA topoisomerase 2-beta (Homo sapiens) (UniProt Q02880). Briefly: Inhibition of human topoisomerase 2 beta mediated supercoiled pBR322 DNA relaxation at 2 uM by ethidium bromide staining based agarose gel electrophoresis relative to control.
The next test has as its system SK-OV-3. The test can be described thus: Antiproliferative activity against human SK-OV-3 cells assessed as reduction in cell viability after 48 hrs by Ez-cytoX based microplate reader method. The conditions noted are these: SK-OV-3, 48 h. It is filed as functional.
For test [5], the system named is Calf thymus DNA. Briefly: Binding affinity to calf thymus DNA assessed as DNA intercalation at 100 uM by fluorescence based EtBr-displacement assay relative to control. The test is classed as nucleic-acid assay. The note with it: Bos taurus.
In another test the test system is DU-145. Briefly: Antiproliferative activity against human DU-145 cells assessed as reduction in cell viability after 48 hrs by Ez-cytoX based microplate reader method. It is filed as functional. The conditions noted are these: DU-145, 48 h.
The next test concerns LNCaP. Briefly: Antiproliferative activity against human LNCaP-LN3 cells assessed as reduction in cell viability after 48 hrs by Ez-cytoX based microplate reader method. The test is classed as functional.
For a further test, the system named is LNCaP-Clone-FGC. The test can be described thus: Antiproliferative activity against human LNCaP-Clone-FGC cells assessed as reduction in cell viability after 48 hrs by Ez-cytoX based microplate reader method. The test is classed as functional.
Test [6] deals with T1, DNA topoisomerase 2-alpha. Briefly: Inhibition of human topoisomerase 2 alpha mediated supercoiled pBR322 DNA relaxation at 5 uM by ethidium bromide staining based agarose gel electrophoresis relative to control.
The target of test [7] is T1, DNA topoisomerase 2-alpha. Briefly: Inhibition of human topoisomerase 2 alpha mediated supercoiled pBR322 DNA relaxation at 1 uM by ethidium bromide staining based agarose gel electrophoresis relative to control.
Test [8] concerns the target T1, DNA topoisomerase 2-alpha. The test can be described thus: Inhibition of human topoisomerase 2 alpha mediated supercoiled pBR322 DNA relaxation at 2 uM by ethidium bromide staining based agarose gel electrophoresis relative to control.
For test [9], the target named is T1, DNA topoisomerase 2-alpha. The test can be described thus: Inhibition of human topoisomerase 2 alpha mediated supercoiled pBR322 DNA relaxation at 10 uM by ethidium bromide staining based agarose gel electrophoresis relative to control.
The next test concerns BT-474. Briefly: Antiproliferative activity against human BT-474 cells assessed as reduction in cell viability after 48 hrs by Ez-cytoX based microplate reader method. It is filed as functional. The note with it: BT-474, 48 h.
Test [10] deals with DNA topoisomerase 2-beta (Homo sapiens) (UniProt Q02880). Briefly: Inhibition of human topoisomerase 2 beta mediated supercoiled pBR322 DNA relaxation at 100 uM by ethidium bromide staining based agarose gel electrophoresis relative to control.
For test [11], the system named is Calf thymus DNA. The test can be described thus: Binding affinity to calf thymus DNA assessed as DNA intercalation at 10 to 100 uM by fluorescence based EtBr-displacement assay. It is filed as nucleic-acid assay. The note with it: Bos taurus; dose 10-100 µM.

As to `Nc1ccc2c(c1)CCc1c(-c3ccccc3)cc(-c3ccccc3O)nc1-2`, the IC50 in the test with HeLa came to 33.2 µM; in the test on HCT-15, 3.47 µM. Besides, in test [1], the inhibition stood at 0%.
On to `Nc1ccc2c(c1)CCc1c(-c3cccc(F)c3)cc(-c3ccccc3O)nc1-2`, for which the concentration for half-maximal inhibition (IC50) came to 8.16 µM in the test on HeLa and 2.26 µM in the test on HCT-15. This molecule also gave an inhibition in test [1] of 1.3%.
Turning to `Nc1ccc2c(c1)CCc1c(-c3ccccc3F)cc(-c3cccc(O)c3)nc1-2`, the IC50 in the test on HeLa was determined as 5.38 µM; with HCT-15, 1.92 µM. Also, in [1], the inhibition was 4.3%.
For the molecule `Nc1ccc2c(c1)CCc1c(-c3cccc(OC(F)(F)F)c3)cc(-c3cccc(O)c3)nc1-2`, the results for the IC50 in the test on HeLa and in the test with HCT-15 were 4.62 µM and 1.84 µM, respectively. The same molecule returned an inhibition in test [1] of 60%.
Take `Nc1ccc2c(c1)CCc1c(-c3cccc(OC(F)(F)F)c3)cc(-c3ccc(O)cc3)nc1-2`: the results for the IC50 in the test on HeLa and in the test on HCT-15 were 3.78 µM and 1.79 µM, respectively. For the same molecule, the inhibition in test [1] was 36.5%.
Consider `Nc1ccc2c(c1)CCc1c(-c3ccc(OC(F)(F)F)cc3)cc(-c3ccc(O)cc3)nc1-2`, for which the IC50 is 5.86 µM in the test on HeLa and 2.02 µM in the test on HCT-15. The inhibition in [1] was found to be 36.5%.
With `Nc1ccc2c(c1)CCc1c(-c3ccc(C(F)(F)F)cc3)cc(-c3cccc(O)c3)nc1-2`, the IC50 was determined as 4.98 µM in the test with HeLa and 2.34 µM with HCT-15. The same molecule showed an inhibition in test [1] of 72.4%.
Taken in the same sequence, the figures for `Nc1ccc2c(c1)CCc1c(-c3ccccc3)cc(-c3ccc(O)cc3)nc1-2` were 6.55 µM, 3.82 µM and 21.7%.
With `Nc1ccc2c(c1)CCc1c(-c3ccccc3C(F)(F)F)cc(-c3ccccc3O)nc1-2`, the IC50 in the test with HeLa was 6.58 µM; with HCT-15, 1.23 µM. The molecule further had an inhibition in [1] of 29.3%.
Consider `Nc1ccc2c(c1)CCc1c(-c3ccccc3C(F)(F)F)cc(-c3cccc(O)c3)nc1-2`, for which the concentration for half-maximal inhibition (IC50) in the test with HeLa came out at 5.4 µM; in the test with HCT-15, 2.93 µM. For the same molecule, the inhibition in test [1] turned out to be 87.4%.
The matching figures for `Nc1ccc2c(c1)CCc1c(-c3ccc(F)cc3)cc(-c3ccc(O)cc3)nc1-2`: 5.64 µM, 2.96 µM and 77.6%.
Taken in the same sequence, the figures for `Nc1ccc2c(c1)CCc1c(-c3ccccc3OC(F)(F)F)cc(-c3ccccc3O)nc1-2` were 5.46 µM, 2.86 µM and 70%.
In the case of `Nc1ccc2c(c1)CCc1c(-c3cccc(C(F)(F)F)c3)cc(-c3ccccc3O)nc1-2`, the IC50 in the test with HeLa is 7.61 µM; in the test with HCT-15 it was 2.29 µM. Further, the inhibition in [1] came out at 25.7%.
As for `Nc1ccc2c(c1)CCc1c(-c3ccccc3F)cc(-c3ccccc3O)nc1-2`, the IC50 with HeLa came to 22.8 µM; in the test with HCT-15, 1.11 µM. In test [1], this molecule displayed an inhibition of 1.2%.
Take `Nc1ccc2c(c1)CCc1c(-c3ccccc3OC(F)(F)F)cc(-c3cccc(O)c3)nc1-2`: the IC50 in the test on HeLa came out at 3.41 µM; in the test on HCT-15 it was 5.58 µM. Further, in test [1], the inhibition is 62.8%.
For `Nc1ccc2c(c1)CCc1c(-c3ccc(OC(F)(F)F)cc3)cc(-c3ccccc3O)nc1-2`, the IC50 in the test on HeLa and in the test with HCT-15 was more than 50 µM each time. In test [1], this molecule displayed an inhibition of 30.2%.
For the molecule `Nc1ccc2c(c1)CCc1c(-c3ccc(OC(F)(F)F)cc3)cc(-c3cccc(O)c3)nc1-2`, the IC50 is 5.59 µM in the test with HeLa and 2.71 µM with HCT-15. In addition, in [1], the inhibition worked out at 49%.
Turning to `Nc1ccc2c(c1)CCc1c(-c3ccccc3OC(F)(F)F)cc(-c3ccc(O)cc3)nc1-2`, the IC50 with HeLa stood at 2.87 µM; in the test on HCT-15, 2.96 µM. Moreover, the inhibition in test [1] was found to be 72.5%.
As to `Nc1ccc2c(c1)CCc1c(-c3cccc(F)c3)cc(-c3cccc(O)c3)nc1-2`, the IC50 in the test on HeLa stood at 4.19 µM; in the test with HCT-15 it was 3.91 µM. Besides, the inhibition in test [1] was 3.4%.
The matching figures for `Nc1ccc2c(c1)CCc1c(-c3ccccc3)cc(-c3cccc(O)c3)nc1-2`: 4.05 µM, 3.3 µM and 1.5%.
`Nc1ccc2c(c1)CCc1c(-c3ccc(F)cc3)cc(-c3ccccc3O)nc1-2`: the IC50 in the test on HeLa and in the test on HCT-15 was more than 50 µM throughout. The inhibition in [1] was 1.2%.
In the case of `COc1cc([C@@H]2c3cc4c(cc3[C@@H](O[C@@H]3O[C@@H]5CO[C@@H](C)O[C@H]5[C@H](O)[C@H]3O)[C@H]3COC(=O)[C@H]23)OCO4)cc(OC)c1O` [ETOPOSIDE], the IC50 with HeLa came to 8.3 µM.
In the case of `Nc1ccc2c(c1)CCc1c(-c3cccc(F)c3)cc(-c3ccc(O)cc3)nc1-2`, the IC50 in the test with HeLa turned out to be 5.05 µM; with HCT-15, 1.85 µM. The same molecule registered an inhibition in test [1] of 10.5%.
Taken in the same sequence, the figures for `Nc1ccc2c(c1)CCc1c(-c3cccc(C(F)(F)F)c3)cc(-c3ccc(O)cc3)nc1-2` were 5.14 µM, 2 µM and 75%.
For the molecule `Nc1ccc2c(c1)CCc1c(-c3ccccc3F)cc(-c3ccc(O)cc3)nc1-2`, the IC50 turned out to be 3.26 µM in the test on HeLa and 1.52 µM in the test on HCT-15. Besides, the inhibition in test [1] came out at 25.3%.
The matching figures for `Nc1ccc2c(c1)CCc1c(-c3ccc(F)cc3)cc(-c3cccc(O)c3)nc1-2`: 5.18 µM, 2.87 µM and 3.9%.
Regarding `Nc1ccc2c(c1)CCc1c(-c3ccccc3C(F)(F)F)cc(-c3ccc(O)cc3)nc1-2`, the inhibition in [2] worked out at 21.7%; in test [4], 19.6%; in test [6] it was 57%; in test [7], 22.3%; in test [8], 34.4%; in [9] it was 66.2%. Also, the inhibition in [10] stood at 82.6%; in test [1], 81.9%. For the same molecule, the IC50 turned out to be 3.58 µM in test [3]; 5.07 µM in the test with HeLa; 1.99 µM in the test on HCT-15; 1.67 µM with SK-OV-3; 1.56 µM in the test on DU-145; 5.58 µM with LNCaP. Also, the half-maximal inhibitory concentration (IC50) in the test on LNCaP-Clone-FGC turned out to be 7.18 µM; with BT-474, 5.13 µM. Besides, the result with Calf thymus DNA [5] was inactive. The Activity result in the test on Calf thymus DNA [11] is “Dose-Dependent Effect”.
For `Nc1ccc2c(c1)CCc1c(-c3ccc(C(F)(F)F)cc3)cc(-c3ccc(O)cc3)nc1-2`, the IC50 in the test on HeLa came out at 5.54 µM; in the test on HCT-15, 2.73 µM. In [1], this molecule registered an inhibition of 77.8%.
In the case of `COc1cccc2c1C(=O)c1c(O)c3c(c(O)c1C2=O)C[C@@](O)(C(=O)CO)C[C@@H]3O[C@H]1C[C@H](N)[C@H](O)[C@H](C)O1` [DOXORUBICIN HYDROCHLORIDE], in the test with HCT-15, the IC50 worked out at 1.89 µM.
On to `Nc1ccc2c(c1)CCc1c(-c3ccc(C(F)(F)F)cc3)cc(-c3ccccc3O)nc1-2`, for which the IC50 in the test with HeLa and in the test on HCT-15 was more than 50 µM each time. The molecule further showed an inhibition in test [1] of 28.8%.
With `Nc1ccc2c(c1)CCc1c(-c3cccc(C(F)(F)F)c3)cc(-c3cccc(O)c3)nc1-2`, the IC50 with HeLa was found to be 4.49 µM; with HCT-15, 2.43 µM. This molecule also came in with an inhibition in test [1] of 62.9%.
